# Measured values as given in US10752612B2, “PLK4 inhibitors” (LUDWIG INSTITUTE FOR CANCER RESEARCH LTD, priority 2015, dated 2020).
# pIC50: −log10 of the molar value.
# Molecular target: T1, human Plk4 kinase domain (aa 2-275) (Homo sapiens, UniProt O00444)
# T1 construct: purified 6×His-tagged human Plk4 kinase domain (aa 2-275); 6xHis; made in house; host or cells: E. coli
# T1 sequence (O00444 2-275): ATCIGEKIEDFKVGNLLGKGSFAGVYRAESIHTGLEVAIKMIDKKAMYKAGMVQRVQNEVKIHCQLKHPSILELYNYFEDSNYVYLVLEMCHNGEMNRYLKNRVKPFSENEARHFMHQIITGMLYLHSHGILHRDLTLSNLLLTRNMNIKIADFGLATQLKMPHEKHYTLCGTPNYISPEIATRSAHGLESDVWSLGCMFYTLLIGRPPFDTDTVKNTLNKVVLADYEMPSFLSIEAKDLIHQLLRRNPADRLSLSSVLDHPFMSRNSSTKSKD
# Test: Plk4 kinase assay (ADP-Glo)
# Type: biochemical
# Conditions: Table 1
# Summary of the method: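 Enzyme at 2.5-10 nM final, pH 8.0, reacted 4-16 hours at 25° C; ADP generation read by ADP-Glo luminescence. Ki derived from IC50 by Cheng-Prusoff or, for tight binders, Copeland formalism.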
row,pIC50,SMILES
1,> 6.00,Cc1cc(Nc2nc(Sc3ccc(NC(=O)C4CC4)cc3)nc(C)c2C)n[nH]1
2,> 6.00,COCCNc1nc(Sc2ccc(NC(=O)C3CC3)cc2)nc(Nc2cc(C)[nH]n2)c1OC
3,6.00 to 7.00,CNCCN(C)c1nc(Sc2ccc(NC(=O)C3CC3)cc2)nc(Nc2cc(C)[nH]n2)c1OC
4,6.00 to 7.00,COc1c(NCCN(C)C)nc(Sc2ccc(NC(=O)C3CC3)cc2)nc1Nc1cc(C)[nH]n1
5,6.00 to 7.00,COc1c(Nc2cc(C)[nH]n2)nc(Sc2ccc(NC(=O)C3CC3)cc2)nc1N(C)CCN(C)C
6,> 6.00,COc1c(Nc2cc(C)[nH]n2)nc(Sc2ccc(NC(=O)C3CC3)cc2)nc1N1CCCCC1
7,> 6.00,COc1c(Nc2cc(C)[nH]n2)nc(Sc2ccc(NC(=O)C3CC3)cc2)nc1NC(C)C
8,> 6.00,COc1c(CS(=O)(=O)c2ccc(Sc3nc(Nc4cc(C)[nH]n4)c(OC)c(N4CCN(CCN(C)C)CC4)n3)cc2)cccc1[N+](=O)[O-]
9,> 6.00,COc1c(Nc2cc(C)[nH]n2)nc(Sc2ccc(S(=O)(=O)Cc3cc([N+](=O)[O-])ccc3F)cc2)nc1N1CCN(CCN(C)C)CC1
10,> 6.00,COc1c(Nc2cc(C)[nH]n2)nc(Sc2ccc(S(=O)(=O)Cc3cccc([N+](=O)[O-])c3)cc2F)nc1N1CCN(CCN(C)C)CC1
11,> 6.00,COc1c(Nc2cc(C)[nH]n2)nc(Sc2ccc(S(=O)(=O)Cc3cccc([N+](=O)[O-])c3F)cc2)nc1N1CCCCC1
12,> 6.00,COc1c(Nc2cc(C)[nH]n2)nc(Sc2ccc(S(=O)(=O)Cc3cccc([N+](=O)[O-])c3F)cc2)nc1N1CCOCC1
13,> 6.00,COc1c(Nc2cc(C)[nH]n2)nc(Sc2ccc(S(=O)(=O)Cc3cc(F)cc([N+](=O)[O-])c3)cc2)nc1N1CCN(CCN(C)C)CC1
14,> 6.00,COc1c(Nc2cc(C)[nH]n2)nc(Sc2ccc(S(=O)(=O)Cc3cccc([N+](=O)[O-])c3Cl)cc2)nc1N1CCN(CCN(C)C)CC1
15,> 6.00,COc1c(Nc2cc(C)[nH]n2)nc(Sc2ccc(S(=O)(=O)Cc3cccc([N+](=O)[O-])c3F)cc2F)nc1N1CCN(CCN(C)C)CC1
16,> 6.00,COc1c(Nc2cc(C)[nH]n2)nc(Sc2ccc(S(=O)(=O)Cc3cccc([N+](=O)[O-])c3)cc2F)nc1N1CCOCC1
17,> 6.00,COc1c(Nc2cc(C)[nH]n2)nc(Sc2ccc(S(=O)(=O)Cc3cccc([N+](=O)[O-])c3)cc2F)nc1N1CCOC[C@@H]1C
18,> 6.00,COc1c(Nc2cc(C)[nH]n2)nc(Sc2ccc(S(=O)(=O)Cc3cccc([N+](=O)[O-])c3C#N)cc2)nc1N1CCN(CCN(C)C)CC1
19,> 6.00,COc1c(Nc2cc(C)[nH]n2)nc(Sc2ccc(S(=O)(=O)Cc3cccc([N+](=O)[O-])c3F)cc2)nc1N1CCC(O)CC1
20,> 6.00,COc1c(Nc2cc(C)[nH]n2)nc(Sc2ccc(S(=O)(=O)Cc3cccc([N+](=O)[O-])c3O)cc2)nc1N1CCN(CCN(C)C)CC1
21,> 6.00,COc1c(Nc2cc(C)[nH]n2)nc(Sc2ccc(S(=O)(=O)Cc3cccc([N+](=O)[O-])c3)cc2)nc1N1C2CCC1COC2
22,> 6.00,COc1c(Nc2cc(C)[nH]n2)nc(Sc2ccc(S(C)(=O)=O)cc2F)nc1N1CCC(CCN(C)C)CC1
23,> 6.00,COc1c(Nc2cc(C)[nH]n2)nc(Sc2ccc(S(C)(=O)=O)cc2F)nc1N1CCN(CCN(C)C)CC1

row,pIC50,SMILES
1,> 6.00,COc1c(Nc2cc(C)[nH]n2)nc(Sc2ccc(S(C)(=O)=O)cc2Cl)nc1N1CCN(CCN(C)C)CC1
2,> 6.00,COc1c(Nc2cc(C)[nH]n2)nc(Sc2ccc(S(C)(=O)=O)cc2Cl)nc1N1CCC(CCN(C)C)CC1
3,> 6.00,CCS(=O)(=O)c1ccc(Sc2nc(Nc3cc(C)[nH]n3)c(OC)c(N3CCOCC3)n2)c(Cl)c1
4,> 6.00,COc1c(Nc2cc(C)[nH]n2)nc(Sc2ccc(S(=O)(=O)Cc3cccc([N+](=O)[O-])c3F)cc2F)nc1N1CCOC[C@H]1C
5,> 6.00,COc1c(Nc2cc(C)[nH]n2)nc(Sc2ccc(S(=O)(=O)Cc3cccc([N+](=O)[O-])c3)cc2F)nc1N1CCOC[C@H]1C
6,> 6.00,CCS(=O)(=O)c1ccc(Sc2nc(Nc3cc(C)[nH]n3)c(OC)c(N3CCN(CCN(C)C)CC3)n2)c(Cl)c1
7,> 6.00,CCS(=O)(=O)c1ccc(Sc2nc(Nc3cc(C)[nH]n3)c(OC)c(N3CCC(CCN(C)C)CC3)n2)c(Cl)c1
8,> 6.00,CCS(=O)(=O)c1ccc(Sc2nc(Nc3cc(C)[nH]n3)c(OC)c(N3CCN(C)CC3)n2)c(Cl)c1
9,> 6.00,CCS(=O)(=O)c1ccc(Sc2nc(Nc3cc(C)[nH]n3)c(OC)c(N3CCN(CCN(C)C)CC3)n2)c(F)c1
10,> 6.00,CCS(=O)(=O)c1ccc(Sc2nc(Nc3cc(C)[nH]n3)c(OC)c(N3CCC(CCN(C)C)CC3)n2)c(F)c1
11,> 6.00,CCS(=O)(=O)c1ccc(Sc2nc(Nc3cc(C)[nH]n3)c(OC)c(N3CCOC[C@@H]3C)n2)c(Cl)c1
12,> 6.00,COc1c(Nc2cc(C)[nH]n2)nc(Sc2ccc(S(C)(=O)=O)cc2F)nc1N1CCOC[C@@H]1C
13,> 6.00,COc1c(Nc2cc(C)[nH]n2)nc(Sc2ccc(S(=O)(=O)Cc3cccc(F)c3F)cc2F)nc1N1CCCCC1
14,> 6.00,COc1c(Nc2cc(C)[nH]n2)nc(Sc2ccc(S(=O)(=O)Cc3cccc(F)c3F)cc2F)nc1N1CCOCC1
15,> 6.00,COc1c(Nc2cc(C)[nH]n2)nc(Sc2ccc(S(=O)(=O)Cc3cccc(F)c3F)cc2F)nc1N1CCN(CCN(C)C)CC1
16,> 6.00,COc1c(Nc2cc(C)[nH]n2)nc(Sc2ccc(S(=O)(=O)Cc3cccc(F)c3F)cc2F)nc1N1CCOC[C@@H]1C
17,> 6.00,COc1c(Nc2cc(C)[nH]n2)nc(Sc2ccc(S(=O)(=O)Cc3c(F)ccc(F)c3F)cc2F)nc1N1CCN(CCN(C)C)CC1
18,> 6.00,COc1c(Nc2cc(C)[nH]n2)nc(Sc2ccc(S(=O)(=O)Cc3cccc([N+](=O)[O-])c3F)cc2F)nc1N1CCOC[C@@H]1C
19,> 6.00,COc1c(Nc2cc(C)[nH]n2)nc(Sc2ccc(S(=O)(=O)Cc3cccc([N+](=O)[O-])c3)cc2)nc1N1CCOC[C@@H]1CO
20,> 6.00,COc1c(Nc2cc(C)[nH]n2)nc(Sc2ccc(S(=O)(=O)Cc3cccc(Cl)c3F)cc2F)nc1N1CCOCC1
21,> 6.00,COc1c(Nc2cc(C)[nH]n2)nc(Sc2ccc(S(=O)(=O)Cc3cccc(Br)c3F)cc2F)nc1N1CCOCC1
22,> 6.00,COc1c(Nc2cc(C)[nH]n2)nc(Sc2ccc(S(=O)(=O)Cc3c(F)c(F)cc(F)c3F)cc2F)nc1N1CCOCC1
23,> 6.00,COc1c(Nc2cc(C)[nH]n2)nc(Sc2ccc(S(=O)(=O)Cc3cccc(C(F)(F)F)c3F)cc2F)nc1N1CCOCC1

row,pIC50,SMILES
1,> 6.00,COc1c(Nc2cc(C)[nH]n2)nc(Sc2ccc(S(=O)(=O)Cc3cccc(C#N)c3F)cc2F)nc1N1CCOCC1
2,> 6.00,COc1c(Nc2cc(C)[nH]n2)nc(Sc2ccc(S(=O)(=O)Cc3cccc(N)c3F)cc2F)nc1N1CCOCC1
3,> 6.00,COc1c(Nc2cc(C)[nH]n2)nc(Sc2ccc(S(=O)(=O)C(F)c3cccc([N+](=O)[O-])c3F)cc2F)nc1N1CCOCC1 (stereo not drawn)
4,> 6.00,COC(=O)c1cccc(CS(=O)(=O)c2ccc(Sc3nc(Nc4cc(C)[nH]n4)c(OC)c(N4CCOCC4)n3)c(F)c2)c1F
5,> 6.00,COc1c(Nc2cc(C)[nH]n2)nc(Sc2ccc(S(=O)(=O)Cc3cccc(C(=O)N(C)C)c3F)cc2F)nc1N1CCOCC1
6,> 6.00,COc1c(Nc2cc(C)[nH]n2)nc(Sc2ccc(S(=O)(=O)Cc3cccc(C(N)=O)c3F)cc2F)nc1N1CCOCC1
7,> 6.00,COc1c(Nc2cc(C)[nH]n2)nc(Sc2ccc(S(=O)(=O)Cc3cccc([N+](=O)[O-])c3F)cc2F)nc1N1CCOC[C@@H]1CO
8,> 6.00,COc1c(Nc2cc(C)[nH]n2)nc(Sc2ccc(S(=O)(=O)Cc3cccc(Br)c3F)cc2F)nc1N1CCCCC1
9,> 6.00,COc1c(Nc2cc(C)[nH]n2)nc(Sc2ccc(S(=O)(=O)Cc3cccc(I)c3F)cc2F)nc1N1CCOCC1
10,> 6.00,COc1c(Nc2cc(C)[nH]n2)nc(Sc2ccc(S(=O)(=O)c3cccc([N+](=O)[O-])c3)cc2F)nc1N1CCOCC1
11,> 6.00,COc1c(Nc2cc(C)[nH]n2)nc(Sc2ccc(C(=O)Nc3cccc([N+](=O)[O-])c3F)cc2F)nc1N1CCOCC1
12,> 6.00,COc1c(Nc2cc(C)[nH]n2)nc(Sc2ccc(S(=O)(=O)C(F)c3cccc([N+](=O)[O-])c3F)cc2F)nc1N1CCN(CCN(C)C)CC1 (stereo not drawn)
13,> 6.00,COc1c(Nc2cc(C)[nH]n2)nc(Sc2ccc(C#Cc3cccc([N+](=O)[O-])c3F)cc2F)nc1N1CCOCC1
14,> 6.00,COc1c(Nc2cc(C)[nH]n2)nc(Sc2ccc(/C=C/c3cccc([N+](=O)[O-])c3F)cc2F)nc1N1CCOCC1
15,> 6.00,COc1c(Nc2cc(C)[nH]n2)nc(Sc2ccc(CCc3cccc([N+](=O)[O-])c3F)cc2F)nc1N1CCOCC1
16,> 6.00,COc1c(Nc2cc(C)[nH]n2)nc(Sc2ccc(-c3cc4cccc([N+](=O)[O-])c4o3)cc2F)nc1N1CCOCC1
17,> 6.00,COc1c(Nc2cc(C)[nH]n2)nc(Sc2ccc(C(=O)Cc3cccc([N+](=O)[O-])c3F)cc2F)nc1N1CCOCC1
18,> 6.00,COc1c(Nc2cc(C)[nH]n2)nc(Sc2ccc(C(=O)Oc3cccc([N+](=O)[O-])c3F)cc2F)nc1N1CCOCC1
19,> 6.00,COc1c(Nc2cc(C)[nH]n2)nc(Sc2ccc(S(=O)(=O)C(C)(C)c3cccc([N+](=O)[O-])c3F)cc2F)nc1N1CCOCC1
20,6.00 to 7.00,COc1c(Nc2cc(C)[nH]n2)nc(Sc2ccc(NC(=O)c3cccc([N+](=O)[O-])c3F)cc2F)nc1N1CCOCC1
21,> 6.00,COc1c(Nc2cc(C)[nH]n2)nc(Sc2ccc(S(=O)(=O)Cc3cccc(C#N)c3F)cc2F)nc1N1CCCCC1
22,> 6.00,COc1c(Nc2cc(C)[nH]n2)nc(Sc2ccc(S(=O)(=O)Cc3cccc(C#N)c3F)cc2F)nc1N1CCN(CCN(C)C)CC1
23,> 6.00,COc1c(Nc2cc(C)[nH]n2)nc(Sc2ccc(S(=O)(=O)C(F)c3cccc(C#N)c3F)cc2F)nc1N1CCOCC1 (stereo not drawn)
